Experimental data published in publication PMC10066365, “Nemacol is a small molecule inhibitor of C. elegans vesicular acetylcholine transporter with anthelmintic potential” (Nature Communications, 2023).
Where “and” joins values, the source holds several entries; their conditions need not be identical. Identical values can stand only once. Like-named read-outs stand apart in the source and are kept apart here.

How the values were obtained:
C. elegans unc-17(e245) = details: for development average norm L4/As / viability Avg: CB245 unc-17(e245); for nemacol-1 x ivermectin matrix dose-response raw data: unc-17(e245) + 0 uM nemacol, 3 replicate columns
C. elegans = C. elegans 3-day liquid viability assay, Nemacol-1 x Ivermectin matrix, wild type; details: for development average norm L4/As / viability Avg / average progress to L4 (development) / average viability (relative to control): N2; for average progress to L4 (development) / average viability (relative to control): Nemacol-1-1 0; for nemacol-1 x ivermectin matrix dose-response raw data: wt (N2) + 0 uM nemacol, 3 replicate columns
C. elegans DA1316 = experiment: C. elegans 3-day liquid viability assay, DA1316 avr-14; avr-15; […]; type: in vivo, Caenorhabditis elegans; details: DA1316, nemacol-1 0
Haemonchus contortus = Haemonchus contortus L3 Migration Trap Assay (motility, 24 h exposure); details: hc weybridge, 24 h; for raw: raw motility readout
[1] = ivermectin 0.001875 uM (row head 1.875)
[2] = ivermectin 0.00375 uM (row head 3.75)
[3] = ivermectin 0.06 uM (row head 60)
[4] = ivermectin 0.00046875 uM (Fig. 5AC sheet)
[5] = ivermectin 0.0009375 uM (Fig. 5AC sheet)
[6] = ivermectin 0.001875 uM (Fig. 5AC sheet)
[7] = ivermectin 0.00375 uM (Fig. 5AC sheet)
[8] = ivermectin 0.03 uM (Fig. 5AC sheet)
[9] = ivermectin 0.06 uM (Fig. 5AC sheet)
[10] = ivermectin 0.0195312 µM + Nemacol_53 26.4 µM
[11] = ivermectin 0.0195312 µM + Nemacol_53 16.8 (unit not given)
[12] = ivermectin 0.078125 µM + Nemacol_53 26.4 µM
[13] = ivermectin 0.078125 µM + Nemacol_53 16.8 (unit not given)
[14] = ivermectin 5 µM + Nemacol_53 16.8 (unit not given)

CC[C@H](C)[C@H]1O[C@]2(CC[C@@H]1C)C[C@@H]1C[C@@H](C/C=C(\C)[C@@H](O[C@H]3C[C@H](OC)[C@@H](O[C@H]4C[C@H](OC)[C@@H](O)[C@H](C)O4)[C@H](C)O3)[C@@H](C)/C=C/C=C3\CO[C@@H]4[C@H](O)C(C)=C[C@@H](C(=O)O1)[C@]34O)O2 [ivermectin]
development average norm L4/As (C. elegans unc-17(e245); ivermectin 0.00046875 uM): 91.4 | viability Avg (C. elegans unc-17(e245); ivermectin 0.00046875 uM): 0.92 | development average norm L4/As (C. elegans unc-17(e245); ivermectin 0.0009375 uM): 102.0 | viability Avg (C. elegans unc-17(e245); ivermectin 0.0009375 uM): 1.02 | development average norm L4/As (C. elegans unc-17(e245); ivermectin 0.001875 uM): 96.6 | viability Avg (C. elegans unc-17(e245); ivermectin 0.001875 uM): 0.97 | development average norm L4/As (C. elegans unc-17(e245); ivermectin 0.00375 uM): 94.6 | viability Avg (C. elegans unc-17(e245); ivermectin 0.00375 uM): 0.95 | development average norm L4/As (C. elegans unc-17(e245); ivermectin 0.03 uM): 1.1 | viability Avg (C. elegans unc-17(e245); ivermectin 0.03 uM): 0.03 | development average norm L4/As (C. elegans unc-17(e245); ivermectin 0.06 uM): 0.0 | viability Avg (C. elegans unc-17(e245); ivermectin 0.06 uM): 0.00 | nemacol-1 x ivermectin matrix dose-response raw data (C. elegans unc-17(e245); [1]): 100.0 and 98.2 and 92.0 | nemacol-1 x ivermectin matrix dose-response raw data (C. elegans unc-17(e245); [2]): 94.6 and 102.2 and 87.1 | nemacol-1 x ivermectin matrix dose-response raw data (C. elegans unc-17(e245); [3]): 0.0 | development average norm L4/As (C. elegans; [4]): 99.0 | viability Avg (C. elegans; [4]): 0.99 | development average norm L4/As (C. elegans; [5]): 105.0 | viability Avg (C. elegans; [5]): 1.05 | average progress to L4 (development) (C. elegans; ivermectin 0.0009375 uM): 107.265 | average viability (relative to control) (C. elegans; ivermectin 0.0009375 uM): 1.077 | development average norm L4/As (C. elegans; [6]): 102.7 | viability Avg (C. elegans; [6]): 1.03 | average progress to L4 (development) (C. elegans; ivermectin 0.001875 uM): 88.2297 | average viability (relative to control) (C. elegans; ivermectin 0.001875 uM): 0.8852 | development average norm L4/As (C. elegans; [7]): 101.8 | viability Avg (C. elegans; [7]): 1.03 | average progress to L4 (development) (C. elegans; ivermectin 0.00375 uM): 85.4056 | average viability (relative to control) (C. elegans; ivermectin 0.00375 uM): 0.8507 | development average norm L4/As (C. elegans; [8]): 33.1 | viability Avg (C. elegans; [8]): 0.89 | average progress to L4 (development) (C. elegans; ivermectin 0.03 uM): 25.8319 | average viability (relative to control) (C. elegans; ivermectin 0.03 uM): 0.6373 | development average norm L4/As (C. elegans; [9]): 0.0 | viability Avg (C. elegans; [9]): 0.11 | average progress to L4 (development) (C. elegans; ivermectin 0.06 uM): 0 | average viability (relative to control) (C. elegans; ivermectin 0.06 uM): 0.09164 | nemacol-1 x ivermectin matrix dose-response raw data (C. elegans; [1]): 131.9 and 90.0 and 88.0 | nemacol-1 x ivermectin matrix dose-response raw data (C. elegans; [2]): 106.4 and 120.0 and 114.0 | nemacol-1 x ivermectin matrix dose-response raw data (C. elegans; ivermectin 0.03 uM (row head 30)): 48.9 and 56.7 and 24.0 | nemacol-1 x ivermectin matrix dose-response raw data (C. elegans; [3]): 12.8 and 13.3 and 2.0 | total animals normalized to corresponding controls (C. elegans DA1316; ivermectin 0.0009375 uM): 111.56 | total animals normalized to corresponding controls (C. elegans DA1316; ivermectin 0.001875 uM): 102.36 | total animals normalized to corresponding controls (C. elegans DA1316; ivermectin 0.00375 uM): 113.75 | total animals normalized to corresponding controls (C. elegans DA1316; ivermectin 0.03 uM): 108.02 | total animals normalized to corresponding controls (C. elegans DA1316; ivermectin 0.06 uM): 93.85 | efficacy (Haemonchus contortus; [10]): 51.6335 and 46.2111 and 62.2283 | efficacy (Haemonchus contortus; [11]): 45.9092 and 67.7834 and 50.4898 | efficacy (Haemonchus contortus; [12]): 64.6293 and 71.8721 and 59.357 | efficacy (Haemonchus contortus; [13]): 51.0321 and 52.0838 and 33.3542 | efficacy (Haemonchus contortus; ivermectin 0.078125 µM alone): 36.1803 and 63.8058 and 55.3013 | efficacy (Haemonchus contortus; ivermectin 0.3125 µM + Nemacol_53 26.4 µM): 79.9766 and 60.2317 and 86.7864 | efficacy (Haemonchus contortus; ivermectin 0.3125 µM + Nemacol_53 16.8 (unit not given)): 66.3699 and 69.3635 and 88.9679 | efficacy (Haemonchus contortus; ivermectin 0.3125 µM alone): 59.3102 and 77.8029 and 70.3944 | efficacy (Haemonchus contortus; ivermectin 1.25 µM + Nemacol_53 26.4 µM): 80.8981 and 87.2376 and 93.0175 | efficacy (Haemonchus contortus; ivermectin 1.25 µM + Nemacol_53 16.8 (unit not given)): 94.1091 and 79.6798 and 82.4964 | efficacy (Haemonchus contortus; ivermectin 1.25 µM alone): 87.3643 and 74.9707 and 86.5339 | efficacy (Haemonchus contortus; ivermectin 5 µM + Nemacol_53 26.4 µM): 82.4313 and 91.8131 and 94.4761 | efficacy (Haemonchus contortus; [14]): 92.0083 and 91.7168 and 89.2099 | efficacy (Haemonchus contortus; ivermectin 5 µM alone): 83.6288 and 93.388 and 88.8663 | efficacy (Haemonchus contortus; ivermectin 20 µM + Nemacol_53 26.4 µM): 86.7838 and 88.1791 and 95.9929 | efficacy (Haemonchus contortus; ivermectin 20 µM + Nemacol_53 16.8 (unit not given)): 95.5746 and 77.0116 and 89.754 | efficacy (Haemonchus contortus; ivermectin 20 µM alone): 95.1061 and 89.4651 and 83.7772 | raw (Haemonchus contortus; ivermectin 0.0012207 µM + Nemacol_53 26.4 µM): 51596.5 and 71143.5 and 66277.5 | raw (Haemonchus contortus; ivermectin 0.0012207 µM + Nemacol_53 16.8 (unit not given)): 67834.5 and 50419 and 52275.5 | raw (Haemonchus contortus; ivermectin 0.0012207 µM alone): 49240 and 71073.5 and 61317 | raw (Haemonchus contortus; ivermectin 0.00488281 µM + Nemacol_53 26.4 µM): 28751.5 and 44196 and 37912.5 | raw (Haemonchus contortus; ivermectin 0.00488281 µM alone): 43303 and 44672.5 and 57159.5 | raw (Haemonchus contortus; [10]): 27870 and 30994.5 and 21765 | raw (Haemonchus contortus; [11]): 31168.5 and 18564 and 28529 | raw (Haemonchus contortus; ivermectin 0.0195312 µM alone): 32641 and 25525.5 and 49250.5 | raw (Haemonchus contortus; [12]): 20381.5 and 16208 and 23419.5 | raw (Haemonchus contortus; [13]): 28216.5 and 27610.5 and 38403 | raw (Haemonchus contortus; ivermectin 0.078125 µM alone): 36774.5 and 20856 and 25756.5 | raw (Haemonchus contortus; ivermectin 0.3125 µM alone): 23446.5 and 12790.5 and 17059.5 | raw (Haemonchus contortus; ivermectin 1.25 µM alone): 7281 and 14422.5 and 7759.5 | raw (Haemonchus contortus; [14]): 4605 and 4773 and 6217.5
